Patent US20240091210A1, “USE OF 5-[[4-[2-[5-ACETYLPYRIDIN-2-YL]ETHOXY]BENZYL]-1,3-THIAZOLIDINE-2,4-DIONE AND ITS SALTS” (Minoryx Therapeutics S.L., priority 2018, published 2024)

Key:
[1] = Plasma pharmacokinetics in dogs after single oral 3 mg/kg M3 or MIN-102; assay type: in vivo, male Beagle dogs
Method: (§1) The plasma pharmacokinetics of 5-[[4-[2-[5-acetylpyridin-2-yl]ethoxy]phenyl]methyl]-1,3-thiazolidine-2,4-dione (M-III; M3) and 5-[[4-[2-[5-(1-hydroxyethyl)pyridin-2-yl]ethoxy]phenyl]methyl]-1,3-thiazolidine-2,4-dione (M-IV; M4) were determined in male Beagle dogs following a single oral (3 mg/kg) dose administration of either M3 or MIN-102.
Six animals were dosed orally with a suspension formulation of either M-III or MIN-102 in 0.1% Tween 80 and 99.9% CMC (aqueous carboxymethylcellulose 0.5% w/v solution in RO water) at 3 mg/kg. Blood samples (0.5 ml) were collected from the saphenous or cephalic or jugular veins of dogs at predose, 0.5, 1, 2, 4, 6 and 24 hr. Samples were collected into labeled micro-tubes, containing K2EDTA solution (20% K2EDTA solution) as an anticoagulant. Plasma was immediately harvested from the blood by centrifugation at 4000 rpm for 10 min and stored below −70° C. until bioanalysis.
(§2) Concentrations of M3 and M-IV in dog plasma samples were determined by fit-for-purpose LC-MS/MS method. Non-Compartmental-Analysis module in Phoenix WinNonlin® (Version 6.3) was used to assess the pharmacokinetic parameters. Peak plasma concentrations (Cmax) and time for the peak plasma concentrations (Tmax) were the 59 observed values. The areas under the concentration time curve (AUClast and AUCinf) were calculated by linear trapezoidal rule.

[2] = Plasma pharmacokinetics in mice after single oral 4.5 mg/kg M-III or MIN-102; assay type: in vivo, male C57BL/6 mice
Method: The plasma pharmacokinetics of 5-[[4-[2-[5-acetylpyridin-2-yl]ethoxy]phenyl]methyl]-1,3-thiazolidine-2,4-dione (M-III) and 5-[[4-[2-[5-(1-hydroxyethyl)pyridin-2-yl]ethoxy]phenyl]methyl]-1,3-thiazolidine-2,4-dione (M-IV) were determined in male C57BL/6 mice following a single oral (4.5 mg/kg) dose of either M-III or MIN-102 (5-[[4-[2-[5-(1-hydroxyethyl)pyridin-2-yl]ethoxy]phenyl]methyl]-1,3-thiazolidine-2,4-dione hydrochloride).
Animals were administered orally with a suspension formulation of either M-III or MIN-102 in 0.1% Tween 80 and 99.9% NaCMC in water (0.5% w/v) at 4.5 mg/kg dose. The blood samples were collected from a set of three mice at each time point in labeled micro centrifuge tubes containing K2EDTA solution as anticoagulant at Pre-dose, 0.25, 0.5, 1, 2, 4, 8, 12 and 24 hr. Plasma samples were separated by centrifugation of whole blood and stored below −70±10° C. until bioanalysis. All samples were processed for analysis by protein precipitation using acetonitrile and analyzed with fit-for-purpose LC-MS/MS method (LLOQ=2.46 ng/mL for M-III and 2.49 ng/mL for M-IV). Pharmacokinetic parameters were calculated using the non-compartmental analysis tool of Phoenix WinNonlin® (Version 6.3).

[3] = Plasma pharmacokinetics in rats after single oral 10 mg/kg M-III or MIN-102; assay type: in vivo, male Sprague Dawley rats
Method: as §1, with “male Sprague Dawley” for “male Beagle dogs”, “oral (10” for “oral (3”, “either M-III” for “either M3”
Six animals were dosed orally with a suspension formulation of either M-III or MIN-102 in 0.1% Tween 80 and 99.9% CMC (0.5% w/v solution in RO water) at 10 mg/kg.
The dosing volume administered was 10 mL/kg. Blood samples (approximately 60 μL) were collected from retro-orbital plexus of three rats at 0.08, 0.25, 0.5, 1, 2, 4, 8, 12 and 24 hr (IV) and at predose, 0.25, 0.5, 1, 2, 4, 8, 12 and 24 hr. Samples were collected into labeled micro-tubes, containing K2EDTA solution (20% K2EDTA solution) as an anticoagulant. Plasma was immediately harvested from the blood by centrifugation at 4000 rpm for 10 min at 4±2° C. and stored below −70° C. until bioanalysis.
as §2, with “M-III” for “M3”, “rat” for “dog”, “(Cax)” for “(Cmax)”, “the” for “the 59”

[4] = as described in WO 2015/150476 A1; cited from earlier work
[5] = Plasma pharmacokinetics in mice after single oral 50 mg/kg M-III; assay type: in vivo; conditions: male C57BL/6 mice
Method: To the plasma pharmacokinetics of 5-[[4-[2-[5-acetylpyridin-2-yl]ethoxy]phenyl]methyl]-1,3-thiazolidine-2,4-dione (M-III) and 5-[[4-[2-[5-(1-hydroxyethyl)pyridin-2-yl]ethoxy]phenyl]methyl]-1,3-thiazolidine-2,4-dione (M-IV) were determined in male C57BL/6 mice following a single oral (50 mg/kg) dose administration of M-III.
Nine animals were administered orally with suspension formulation of M-III in 0.1% Tween 80 and 99.9% NaCMC in water (0.5% w/v) at 50 mg/kg dose. The dosing volume administered was 10 mL/kg. The blood samples were collected from set of three mice at each time point in labeled micro centrifuge tube containing K2EDTA solution as anticoagulant at Pre-dose, 0.25, 0.5, 1, 2, 4, 8, 12 and 24 hr. Plasma samples were separated by centrifugation of whole blood and stored below −70±10° C. until bioanalysis. All samples were processed for analysis by protein precipitation using acetonitrile and analyzed with fit-for-purpose LC-MS/MS method (LLOQ=2.46 ng/mL for M-III and 2.49 ng/mL for M-IV). Pharmacokinetic parameters were calculated using the non-compartmental analysis tool of Phoenix WinNonlin® (Version 6.3).

[6] = molecular target: mitochondrial pyruvate carrier (MPC) (Homo sapiens (Human), UniProt O95563+Q9Y5U8); assay: BRET assay of MPC inhibitory activity in HEK cells; assay type: cell-based; conditions: HEK cells expressing MPC2-Rluc8 and MPC1-Venus; read-out: IC50 (MPC inhibition, BRET)
Method: The MPC is a heterodimer composed of two subunits, MPC1 and MPC2. MPC1 and MPC2 interact to form an active carrier. In the assay, MPC2 was fused to Rluc8 (Donor) and MPC1 to Venus (Acceptor). These chimeric proteins were stably expressed in HEK cells. BRET activity was measured following addition of coelenterazine in the culture medium. Coelenterazine enters into cells and in contact with luciferase Rluc8 emits light, which activates the emission of fluorescence by the Acceptor, provided the distance between the Donor and Acceptor is <[…]. If the distance between Donor and Acceptor is >[…], no BRET activity is measured. The level of BRET activity reflects a change in the conformation of the MPC: it is high when the carrier is in a closed conformation, low when the carrier is at rest and intermediary when it transports pyruvate. In this case, the BRET activity is the mean value between the BRET value when the carrier is at rest (Maximal distance between Donor and Acceptor) and the BRET value when it is closed (Shortest distance between Donor and Acceptor)
A wide range of concentrations of each of the tested compounds was used from 1 nM to 100 μM.

Chain of mitochondrial pyruvate carrier (MPC) (Q9Y5U8 whole entry, the tested form may be a part): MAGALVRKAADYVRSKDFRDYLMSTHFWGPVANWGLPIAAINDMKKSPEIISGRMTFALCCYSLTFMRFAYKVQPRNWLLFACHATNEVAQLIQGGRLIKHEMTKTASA
Chain of mitochondrial pyruvate carrier (MPC) (O95563 whole entry, the tested form may be a part): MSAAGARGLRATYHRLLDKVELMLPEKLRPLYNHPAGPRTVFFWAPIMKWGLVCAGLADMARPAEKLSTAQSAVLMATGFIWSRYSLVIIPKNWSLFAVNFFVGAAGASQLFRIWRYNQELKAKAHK

Row | share of total exposure (AUC) ([1]; after single oral 3 mg/kg M3, male dogs) | share of total exposure (AUC) ([1]; after single oral 3 mg/kg MIN-102, male dogs) | share of total exposure (AUC) ([2]; after single oral 4.5 mg/kg M-III, male mice) | share of total exposure (AUC) ([2]; after single oral 4.5 mg/kg MIN-102, male mice) | share of total exposure (AUC) ([3]; after single oral 10 mg/kg M-III, male rats) | share of total exposure (AUC) ([3]; after single oral 10 mg/kg MIN-102, male rats) | share of total exposure (AUC) [5] | SMILES | blood-brain-barrier penetration [4] | IC50 [6]
1 | ~84% | about 92% | ~75% | about 62% | ~48% | about 58% | about 75% | CC(O)c1ccc(CCOc2ccc(CC3SC(=O)NC3=O)cc2)nc1 (stereo not shown) [M-IV, 5-[[4-[2-[5-(1-hydroxyethyl)pyridin-2-yl]ethoxy]phenyl]methyl]-1,3-thiazolidine-2,4-dione] | penetrates the BBB | 
2 |  |  |  |  |  |  |  | CCc1ccc(CCOc2ccc(CC3SC(=O)NC3=O)cc2)nc1 (stereo not shown) [Pioglitazone] |  | > 100000 nM
3 |  |  |  |  |  |  |  | CN(CCOc1ccc(C[C@@H]2SC(=O)NC2=O)cc1)c1ccccn1 [Rosiglitazone] |  | 2000 nM
